≈ marks a conversion by molar mass, not a printed value.
How the values were obtained:
Format in all cases: functional
[1] = test system: Mycobacterium tuberculosis; assay: Antibacterial activity against Mycobacterium tuberculosis Kurono
Staphylococcus aureus [2] = assay: Antibacterial activity against methicillin resistant Staphylococcus aureus No. 5
[3] = test system: Mycobacterium tuberculosis; assay: Antibacterial activity against Mycobacterium tuberculosis JCM 6384
Mycolicibacterium phlei = assay: Antibacterial activity against Mycobacterium phlei
Mycolicibacterium vaccae = assay: Antibacterial activity against Mycobacterium vaccae ATCC 15483
Streptococcus pneumoniae = assay: Antibacterial activity against Streptococcus pneumoniae PCI 602
Staphylococcus aureus [4] = assay: Antibacterial activity against Staphylococcus aureus FDA 209P
Bacillus subtilis = assay: Antibacterial activity against Bacillus subtilis PCI 219
[5] = Antibacterial activity against Mycobacterium avium subsp. avium ATCC 25291
Escherichia coli = assay: Antibacterial activity against Escherichia coli K-12
[6] = test system: Mycolicibacterium smegmatis; assay: Antibacterial activity against Mycobacterium smegmatis ATCC 607
[7] = test system: Mycobacterium avium subsp. paratuberculosis; assay: Antibacterial activity against Mycobacterium avium subsp. paratuberculosis ATCC 43015
[8] = test system: Mycobacterium tuberculosis; assay: Antibacterial activity against Mycobacterium tuberculosis H37Rv
Staphylococcus aureus [9] = assay: Antibacterial activity against methicillin resistant Staphylococcus aureus MS16526
Enterococcus faecalis [10] = assay: Antibacterial activity against Enterococcus faecalis ATCC 29212
Enterococcus faecalis [11] = assay: Antibacterial activity against Enterococcus faecalis SR7914 (VRE)
Haemophilus influenzae = assay: Antibacterial activity against Haemophilus influenzae ATCC 10211

CCCCCCCCCCCCCCNC(=O)C1=CCN(C)[C@@H]([C@H](O[C@@H]2O[C@H](CN)[C@@H](O)[C@H]2O)[C@H]2O[C@@H](n3ccc(=O)[nH]c3=O)[C@H](O)[C@@H]2O)C(=O)N1C
MIC [1]: 1.56 µg/mL (≈ 2.07 µM)
MIC (Staphylococcus aureus [2]): 6.25 µg/mL (≈ 8.3 µM)
MIC [3]: 0.39 µg/mL (≈ 0.518 µM)
MIC (Mycolicibacterium phlei): 0.78 µg/mL (≈ 1.04 µM)
MIC (Mycolicibacterium vaccae): 1.56 µg/mL (≈ 2.07 µM)
MIC (Streptococcus pneumoniae): 12.5 µg/mL (≈ 16.6 µM)
MIC (Staphylococcus aureus [4]): 3.13 µg/mL (≈ 4.16 µM)
MIC (Bacillus subtilis): 0.2 µg/mL (≈ 0.266 µM)
MIC [5]: 3.13 µg/mL (≈ 4.16 µM)
MIC (Escherichia coli): > 100 µg/mL
MIC [6]: 1.56 µg/mL (≈ 2.07 µM)
MIC [7]: 0.39 µg/mL (≈ 0.518 µM)
MIC [8]: 1.56 µg/mL (≈ 2.07 µM)
MIC (Staphylococcus aureus [9]): 3.13 µg/mL (≈ 4.16 µM)

CCCCCCCNC(=O)C1=CCN(C)[C@@H]([C@H](O[C@@H]2O[C@H](CN)[C@@H](O)[C@H]2O)[C@H]2O[C@@H](n3ccc(=O)[nH]c3=O)[C@H](O)[C@@H]2O)C(=O)N1C
MIC [1]: 1.56 µg/mL (≈ 2.38 µM)
MIC (Staphylococcus aureus [2]): > 100 µg/mL
MIC [3]: 50 µg/mL (≈ 76.4 µM)
MIC (Mycolicibacterium phlei): > 100 µg/mL
MIC (Mycolicibacterium vaccae): > 100 µg/mL
MIC (Streptococcus pneumoniae): > 100 µg/mL
MIC (Staphylococcus aureus [4]): 6.25 µg/mL (≈ 9.55 µM)
MIC (Bacillus subtilis): > 100 µg/mL
MIC [5]: 25 µg/mL (≈ 38.2 µM)
MIC (Escherichia coli): > 100 µg/mL
MIC [6]: 25 µg/mL (≈ 38.2 µM)
MIC [7]: 25 µg/mL (≈ 38.2 µM)
MIC [8]: 3.13 µg/mL (≈ 4.78 µM)
MIC (Staphylococcus aureus [9]): > 100 µg/mL

CCCCCCCCCCNC(=O)C1=CCN(C)[C@@H]([C@H](O[C@@H]2O[C@H](CN)[C@@H](O)[C@H]2O)[C@H]2O[C@@H](n3ccc(=O)[nH]c3=O)[C@H](O)[C@@H]2O)C(=O)N1C
MIC [1]: 1.56 µg/mL (≈ 2.24 µM)
MIC (Staphylococcus aureus [2]): > 100 µg/mL
MIC [3]: 0.78 µg/mL (≈ 1.12 µM)
MIC (Mycolicibacterium phlei): 25 µg/mL (≈ 35.9 µM)
MIC (Mycolicibacterium vaccae): 50 µg/mL (≈ 71.8 µM)
MIC (Streptococcus pneumoniae): > 100 µg/mL
MIC (Staphylococcus aureus [4]): 0.78 µg/mL (≈ 1.12 µM)
MIC (Bacillus subtilis): > 100 µg/mL
MIC [5]: 0.39 µg/mL (≈ 0.56 µM)
MIC (Escherichia coli): > 100 µg/mL
MIC [6]: 6.25 µg/mL (≈ 8.97 µM)
MIC [7]: 6.25 µg/mL (≈ 8.97 µM)
MIC [8]: 1.56 µg/mL (≈ 2.24 µM)
MIC (Staphylococcus aureus [9]): > 100 µg/mL

CCCCCCCCCCCCCCCCCCCNC(=O)C1=CCN(C)[C@@H]([C@H](O[C@@H]2O[C@H](CN)[C@@H](O)[C@H]2O)[C@H]2O[C@@H](n3ccc(=O)[nH]c3=O)[C@H](O)[C@@H]2O)C(=O)N1C
MIC [1]: 1.56 µg/mL (≈ 1.9 µM)
MIC (Staphylococcus aureus [2]): 6.25 µg/mL (≈ 7.59 µM)
MIC [3]: 0.78 µg/mL (≈ 0.948 µM)
MIC (Mycolicibacterium phlei): 25 µg/mL (≈ 30.4 µM)
MIC (Mycolicibacterium vaccae): 3.13 µg/mL (≈ 3.8 µM)
MIC (Streptococcus pneumoniae): > 100 µg/mL
MIC (Staphylococcus aureus [4]): 6.25 µg/mL (≈ 7.59 µM)
MIC (Bacillus subtilis): 0.78 µg/mL (≈ 0.948 µM)
MIC [5]: 1.56 µg/mL (≈ 1.9 µM)
MIC (Escherichia coli): > 100 µg/mL
MIC [6]: 12.5 µg/mL (≈ 15.2 µM)
MIC [7]: 0.78 µg/mL (≈ 0.948 µM)
MIC [8]: 1.56 µg/mL (≈ 1.9 µM)
MIC (Staphylococcus aureus [9]): 6.25 µg/mL (≈ 7.59 µM)

CCCCCCCCCCCCCCCCCCNC(=O)C1=CCN(C)[C@@H]([C@H](O[C@@H]2O[C@H](CN)[C@@H](O)[C@H]2O)[C@H]2O[C@@H](n3ccc(=O)[nH]c3=O)[C@H](O)[C@@H]2O)C(=O)N1C
MIC [1]: 1.56 µg/mL (≈ 1.93 µM)
MIC (Staphylococcus aureus [2]): 6.25 µg/mL (≈ 7.73 µM)
MIC [3]: 0.78 µg/mL (≈ 0.964 µM)
MIC (Mycolicibacterium phlei): 3.13 µg/mL (≈ 3.87 µM)
MIC (Mycolicibacterium vaccae): 3.13 µg/mL (≈ 3.87 µM)
MIC (Streptococcus pneumoniae): > 100 µg/mL
MIC (Staphylococcus aureus [4]): 6.25 µg/mL (≈ 7.73 µM)
MIC (Bacillus subtilis): < 0.2 µg/mL
MIC [5]: 0.78 µg/mL (≈ 0.964 µM)
MIC (Escherichia coli): > 100 µg/mL
MIC [6]: 6.25 µg/mL (≈ 7.73 µM)
MIC [7]: 0.39 µg/mL (≈ 0.482 µM)
MIC [8]: 1.56 µg/mL (≈ 1.93 µM)
MIC (Staphylococcus aureus [9]): 6.25 µg/mL (≈ 7.73 µM)

CCCCCNC(=O)C1=CCN(C)[C@@H]([C@H](O[C@@H]2O[C@H](CN)[C@@H](O)[C@H]2O)[C@H]2O[C@@H](n3ccc(=O)[nH]c3=O)[C@H](O)[C@@H]2O)C(=O)N1C
MIC [1]: 6.25 µg/mL (≈ 9.97 µM)
MIC (Staphylococcus aureus [2]): > 100 µg/mL
MIC [3]: 100 µg/mL (≈ 160 µM)
MIC (Mycolicibacterium phlei): > 100 µg/mL
MIC (Mycolicibacterium vaccae): > 100 µg/mL
MIC (Streptococcus pneumoniae): > 100 µg/mL
MIC (Staphylococcus aureus [4]): 25 µg/mL (≈ 39.9 µM)
MIC (Bacillus subtilis): > 100 µg/mL
MIC [5]: 100 µg/mL (≈ 160 µM)
MIC (Escherichia coli): > 100 µg/mL
MIC [6]: 100 µg/mL (≈ 160 µM)
MIC [7]: 100 µg/mL (≈ 160 µM)
MIC [8]: 12.5 µg/mL (≈ 19.9 µM)
MIC (Staphylococcus aureus [9]): > 100 µg/mL

CN1C(=O)[C@H]([C@H](O[C@@H]2O[C@H](CN)[C@@H](O)[C@H]2O)[C@H]2O[C@@H](n3ccc(=O)[nH]c3=O)[C@H](O)[C@@H]2O)N(C)CC=C1C(=O)Nc1ccc(C2CCCCC2)cc1
MIC [1]: 1.56 µg/mL (≈ 2.18 µM)
MIC (Staphylococcus aureus [2]): 100 µg/mL (≈ 140 µM)
MIC [3]: 0.39 µg/mL (≈ 0.546 µM)
MIC (Mycolicibacterium phlei): 12.5 µg/mL (≈ 17.5 µM)
MIC (Mycolicibacterium vaccae): 25 µg/mL (≈ 35 µM)
MIC (Streptococcus pneumoniae): 12.5 µg/mL (≈ 17.5 µM)
MIC (Staphylococcus aureus [4]): 100 µg/mL (≈ 140 µM)
MIC (Bacillus subtilis): 100 µg/mL (≈ 140 µM)
MIC [5]: 1.56 µg/mL (≈ 2.18 µM)
MIC (Escherichia coli): 6.25 µg/mL (≈ 8.74 µM)
MIC [6]: 1.56 µg/mL (≈ 2.18 µM)
MIC [7]: 0.78 µg/mL (≈ 1.09 µM)
MIC [8]: 1.56 µg/mL (≈ 2.18 µM)
MIC (Staphylococcus aureus [9]): 0.39 µg/mL (≈ 0.546 µM)

CCCCCCCCCCCCCCCC(=O)OC[C@@H]1[C@H](C(N)=O)[C@@H]([C@H]2O[C@@H](n3ccc(=O)[nH]c3=O)[C@H](O)[C@@H]2O)ON1CCCN
MIC (Enterococcus faecalis [10]): 16 µg/mL (≈ 24.5 µM)
MIC (Enterococcus faecalis [11]): 8 µg/mL (≈ 12.2 µM)
MIC (Haemophilus influenzae): 0.25 µg/mL (≈ 0.382 µM)

CCCCCCCCCNC(=O)C1=CCN(C)[C@@H]([C@H](O[C@@H]2O[C@H](CN)[C@@H](O)[C@H]2O)[C@H]2O[C@@H](n3ccc(=O)[nH]c3=O)[C@H](O)[C@@H]2O)C(=O)N1C
MIC [1]: 0.78 µg/mL (≈ 1.14 µM)
MIC (Staphylococcus aureus [2]): 50 µg/mL (≈ 73.2 µM)
MIC [3]: 0.2 µg/mL (≈ 0.293 µM)
MIC (Mycolicibacterium phlei): 3.13 µg/mL (≈ 4.58 µM)
MIC (Mycolicibacterium vaccae): 12.5 µg/mL (≈ 18.3 µM)
MIC (Streptococcus pneumoniae): > 100 µg/mL
MIC (Staphylococcus aureus [4]): 6.25 µg/mL (≈ 9.15 µM)
MIC (Bacillus subtilis): 1.56 µg/mL (≈ 2.28 µM)
MIC [5]: 1.56 µg/mL (≈ 2.28 µM)
MIC (Escherichia coli): > 100 µg/mL
MIC [6]: 0.78 µg/mL (≈ 1.14 µM)
MIC [7]: 0.2 µg/mL (≈ 0.293 µM)
MIC [8]: 1.56 µg/mL (≈ 2.28 µM)
MIC (Staphylococcus aureus [9]): 50 µg/mL (≈ 73.2 µM)
